# Measured values published in ChEMBL document CHEMBL1154513, “Design and synthesis of 4-aryl-4-oxobutanoic acid amides as calpain inhibitors” (Bioorg Med Chem Lett, 2009).
# pIC50: −log10 of the molar value.
# Target: T1, Calpain-1 catalytic subunit (Homo sapiens, UniProt P07384)
# T1 sequence (P07384 whole entry): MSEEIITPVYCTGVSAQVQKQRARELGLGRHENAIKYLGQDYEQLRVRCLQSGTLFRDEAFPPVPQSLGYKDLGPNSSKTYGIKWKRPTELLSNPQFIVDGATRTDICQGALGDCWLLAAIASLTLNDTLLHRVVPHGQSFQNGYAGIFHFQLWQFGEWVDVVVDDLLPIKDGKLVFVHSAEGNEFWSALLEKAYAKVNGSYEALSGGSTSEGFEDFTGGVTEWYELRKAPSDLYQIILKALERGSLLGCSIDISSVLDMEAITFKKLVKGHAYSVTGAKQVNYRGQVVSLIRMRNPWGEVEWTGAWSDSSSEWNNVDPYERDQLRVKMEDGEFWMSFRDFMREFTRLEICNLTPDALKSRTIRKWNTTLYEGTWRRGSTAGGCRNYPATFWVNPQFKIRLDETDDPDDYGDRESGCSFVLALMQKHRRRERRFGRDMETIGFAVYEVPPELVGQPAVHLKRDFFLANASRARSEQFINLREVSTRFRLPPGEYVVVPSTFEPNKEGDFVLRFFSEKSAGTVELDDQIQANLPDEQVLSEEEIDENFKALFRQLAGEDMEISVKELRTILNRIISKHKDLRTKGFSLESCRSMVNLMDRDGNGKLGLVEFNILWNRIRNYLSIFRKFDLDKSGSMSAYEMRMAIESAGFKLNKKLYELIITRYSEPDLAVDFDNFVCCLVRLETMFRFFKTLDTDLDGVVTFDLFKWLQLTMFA
# Assay: Inhibition of human erythrocytes mu-calpain
row,SMILES,pIC50
1,COc1ccc(OC)c(CCCC(=O)N[C@@H](Cc2ccccc2)C(=O)C(=O)NCc2ccccc2)c1,5.10
2,COc1ccccc1C(=O)CCC(=O)N[C@@H](Cc1ccccc1)C(=O)C(=O)NCc1ccccc1,5.48
3,NC(=O)C(=O)[C@H](Cc1ccccc1)NC(=O)CCC(=O)c1ccccc1,5.49
4,O=C(CCC(=O)c1ccccc1)N[C@@H](Cc1ccccc1)C(=O)C(=O)NCc1ccccc1,5.20
5,COc1ccc(OC)c(C(=O)CCC(=O)N[C@@H](Cc2ccccc2)C(=O)C(=O)NCCc2ccc(OC)c(OC)c2)c1,5.67
6,O=C(CCC(=O)c1ccccc1O)N[C@@H](Cc1ccccc1)C(=O)C(=O)NCc1ccccc1,4.86
7,COc1ccc(CNC(=O)C(=O)[C@H](Cc2ccccc2)NC(=O)CCC(=O)c2cc(OC)ccc2OC)cc1,5.63
8,COc1ccc(C(=O)CCC(=O)N[C@@H](Cc2ccccc2)C(=O)C(=O)NCc2ccccc2)c(OC)c1,5.21
9,COc1ccc(OC)c(C(=O)CCC(=O)N[C@@H](Cc2ccccc2)C(=O)C(=O)NCCc2ccccc2)c1,5.68
10,COc1ccc(C(=O)CCC(=O)N[C@@H](Cc2ccccc2)C(=O)C(=O)NCc2ccccc2)c(O)c1,4.89
11,COc1ccc(OC)c(C(=O)CCC(=O)N[C@@H](Cc2ccccc2)C(=O)C(=O)NCc2ccccc2)c1,5.42
12,COc1ccc(OC)c(CCCC(=O)N[C@@H](Cc2ccccc2)C(=O)C(N)=O)c1,5.73
13,COCOc1ccccc1C(=O)CCC(=O)N[C@@H](Cc1ccccc1)C(=O)C(=O)NCc1ccccc1,5.37
14,COCOc1cc(OC)ccc1C(=O)CCC(=O)N[C@@H](Cc1ccccc1)C(=O)C(=O)NCc1ccccc1,5.37
15,O=C(CCC(=O)c1ccc(O)cc1O)N[C@@H](Cc1ccccc1)C(=O)C(=O)NCc1ccccc1,5.24

# Now those with a higher pIC50, led by results:
row,pIC50,SMILES
1,5.93,COc1ccc(C(=O)CCC(=O)N[C@@H](Cc2ccccc2)C(=O)C(N)=O)c(OC)c1
2,5.79,COc1ccc(OC)c(C(=O)CCC(=O)N[C@@H](Cc2ccccc2)C(=O)C(=O)NCc2ccc(OC)c(OC)c2)c1
3,6.27,COc1ccccc1C(=O)CCC(=O)N[C@@H](Cc1ccccc1)C(=O)C(N)=O
4,6.47,COCOc1ccccc1C(=O)CCC(=O)N[C@@H](Cc1ccccc1)C(=O)C(N)=O
5,6.15,COCOc1cc(OC)ccc1C(=O)CCC(=O)N[C@@H](Cc1ccccc1)C(=O)C(N)=O
6,6.28,COc1ccc(OC)c(C(=O)CCC(=O)N[C@@H](Cc2ccccc2)C(=O)C(N)=O)c1
7,6.02,COc1ccc(CCNC(=O)C(=O)[C@H](Cc2ccccc2)NC(=O)CCC(=O)c2cc(OC)ccc2OC)cc1
